Reference: EP4428121A1, “MODULATORS OF SORTILIN ACTIVITY” (Vesper Bio Aps, priority 2023, dated 2024)

These compounds were tested against T1, Human (6-His)Sortilin (Homo sapiens, UniProt Q99523) (assay: Human Sortilin GCI (Grating-Coupled Interferometry) binding assay). Details: Creoptix WAVE-RAPID, single concentration (usually 1 µM, 10 µM or 100 µM), immobilised Human (6-His)Sortilin, 1:1 kinetic binding model.
T1 construct: purchased RnD Systems
T1 sequence (Q99523 78-755 limits assumed): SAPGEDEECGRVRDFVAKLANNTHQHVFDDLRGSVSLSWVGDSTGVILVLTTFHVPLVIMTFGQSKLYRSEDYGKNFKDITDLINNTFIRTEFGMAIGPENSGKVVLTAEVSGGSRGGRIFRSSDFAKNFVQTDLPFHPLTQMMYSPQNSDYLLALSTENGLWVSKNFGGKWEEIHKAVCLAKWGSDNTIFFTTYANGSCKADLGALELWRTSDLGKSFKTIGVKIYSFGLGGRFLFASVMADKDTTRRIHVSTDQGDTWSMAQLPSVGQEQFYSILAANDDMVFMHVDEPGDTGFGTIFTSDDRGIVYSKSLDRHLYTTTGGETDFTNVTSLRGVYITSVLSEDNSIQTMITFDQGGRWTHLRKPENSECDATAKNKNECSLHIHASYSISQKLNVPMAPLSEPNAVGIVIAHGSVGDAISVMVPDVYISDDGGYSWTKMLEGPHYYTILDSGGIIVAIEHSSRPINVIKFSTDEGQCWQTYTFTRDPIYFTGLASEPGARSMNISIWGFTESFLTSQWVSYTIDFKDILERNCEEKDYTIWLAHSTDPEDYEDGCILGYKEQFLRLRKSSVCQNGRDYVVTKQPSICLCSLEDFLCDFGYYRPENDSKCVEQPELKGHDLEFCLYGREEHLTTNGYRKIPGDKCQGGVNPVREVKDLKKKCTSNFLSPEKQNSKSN

Kd | Compound
1.83 µM | CC(C)(C)CCC(Nc1ccc2ccccc2n1)c1nn[nH]n1 (racemic) [Example 34, [4,4-dimethyl-1-(2H-tetraazol-5-yl)pentyl]-2-quinolylamine]
17.7 µM | CC(C)(C)CC(Nc1ccccc1)c1nn[nH]n1 (racemic) [Example 43, N-phenyl[3,3-dimethyl-1-(2H-tetraazol-5-yl)butyl]amine]
91.1 µM | CC(C)(C)CC(Nc1ncccn1)c1nn[nH]n1 (racemic) [Example 45, N-2-pyrimidinyl[3,3-dimethyl-1-(2H-tetraazol-5-yl)butyl]amine]
7.82 µM | CC(C)(C)CCC(Nc1ncccn1)c1nn[nH]n1 (racemic) [Example 47, N-2-pyrimidinyl[4,4-dimethyl-1-(2H-tetraazol-5-yl)pentyl]amine]
2.47 µM | CC(C)(C)CC(Nc1cncc2ccccc12)c1nn[nH]n1 (racemic) [Example 48, [3,3-dimethyl-1-(2H-tetraazol-5-yl)butyl]-4-isoquinolylamine]
0.735 µM | Cn1ccc2cc(NC(CCC(C)(C)C)c3nn[nH]n3)cnc21 (racemic) [Example 53, [4,4-dimethyl-1-(2H-tetraazol-5-yl)pentyl](1-methyl-1H-1,7-diazainden-5-yl)amine]
123 µM | CC(C)CCC(Nc1ncccn1)c1nn[nH]n1 (racemic) [Example 57, N-2-pyrimidinyl[4-methyl-1-(2H-tetraazol-5-yl)pentyl]amine]
5.9 µM | CC(C)(C)CC(Nc1cc2ccccc2cn1)c1nn[nH]n1 (racemic) [Example 60, [3,3-dimethyl-1-(2H-tetraazol-5-yl)butyl]-3-isoquinolylamine]

The remaining lines, values behind:

Compound | Kd
CC(C)(C)CCC(Nc1cnc2ccccc2c1)c1nn[nH]n1 (racemic) [Example 33, [4,4-dimethyl-1-(2H-tetraazol-5-yl)pentyl]-3-quinolylamine] | 3.43 µM
CC(C)(C)CCC(Nc1cccc2ccccc12)c1nn[nH]n1 (racemic) [Example 35, [4,4-dimethyl-1-(2H-tetraazol-5-yl)pentyl]-1-naphthylamine] | 1.07 µM
CC(C)CCC(Nc1cccc2ccccc12)c1nn[nH]n1 (racemic) [Example 38, [4-methyl-1-(2H-tetraazol-5-yl)pentyl]-1-naphthylamine] | 8.75 µM
CC(C)CC(Nc1ccc2ccccc2n1)c1nn[nH]n1 (racemic) [Example 40, [3-methyl-1-(2H-tetraazol-5-yl)butyl]-2-quinolylamine] | 22 µM
CC(C)CC(Nc1cc2ccccc2cn1)c1nn[nH]n1 (racemic) [Example 42, [3-methyl-1-(2H-tetraazol-5-yl)butyl]-3-isoquinolylamine] | 3.17 µM
CC(C)CC(Nc1cncc2ccccc12)c1nn[nH]n1 (racemic) [Example 46, [3-methyl-1-(2H-tetraazol-5-yl)butyl]-4-isoquinolylamine] | 3.78 µM
CC(C)CC(Nc1cncnc1)c1nn[nH]n1 (racemic) [Example 49, [3-methyl-1-(2H-tetraazol-5-yl)butyl]-5-pyrimidinylamine] | 98 µM
CC(C)(C)CC(Nc1cncnc1)c1nn[nH]n1 (racemic) [Example 50, N-5-pyrimidinyl[3,3-dimethyl-1-(2H-tetraazol-5-yl)butyl]amine] | 28 µM
Cn1ccc2cc(NC(CC(C)(C)C)c3nn[nH]n3)cnc21 (racemic) [Example 52, [3,3-dimethyl-1-(2H-tetraazol-5-yl)butyl](1-methyl-1H-1,7-diazainden-5-yl)amine] | 3.25 µM
CC(C)CCC(Nc1cnc2ccccc2c1)c1nn[nH]n1 (racemic) [Example 55, [4-methyl-1-(2H-tetraazol-5-yl)pentyl]-3-quinolylamine] | 10.5 µM
CC(C)CC(Nc1cnc2ccccc2c1)c1nn[nH]n1 (racemic) [Example 56, [3-methyl-1-(2H-tetraazol-5-yl)butyl]-3-quinolylamine] | 44.9 µM
CC(C)(C)CC(Nc1ccccn1)c1nn[nH]n1 (racemic) [Example 61, N-2-pyridyl[3,3-dimethyl-1-(2H-tetraazol-5-yl)butyl]amine] | 60 µM
